Where two headings read alike, the source gives them in different places.
Legend:
[1] = cited from earlier work
[2] = Cytotoxicity on Vero cells by MTT assay; assay type: cell-based; conditions: African green monkey (Cercopitheus aethiops)
Procedure: The isolated compounds were tested for in-vitro cytotoxicity using Vero cells by 3-(4,5-dimethylthiazol-2-yl)-2,5-diphenyltetrazolium bromide (MTT) assay. The Vero cell line was initiated from kidney of a normal adult African green monkey, Cercopitheus aethiops, obtained from Virology Laboratory, School of Biosciences and Biotechnology, Faculty of Science and Technology, UKM. Vero cells were maintained in DMEM, supplemented with 10% FBS and cultured at 37 °C in a humidified 5% CO2 incubator. The concentration of stock compound solution was 1.0 mg/mL prepared by dissolving 1 mg compound in 50 μL methanol and 950 μL 5% FBS-DMEM. Sonicator was used to emulsify the compounds for 40 min before the two-fold dilutions made in 5% FBS-DMEM to produce a compound solution at concentrations of 0.5, 0.25, 0125 and 0.0625 mg/mL. Briefly, a total of […] of cell suspension with different concentrations were added to each well in the 96-well micro-titer plates. As a positive control, each well from first to third wells was added with cells of 2.5 × 10^5, 1.25 × 10^5 and 0.625 × 10^5 cells/mL. For the negative control (100% cell death, LC100), […] of DMEM without cells were added to the twelfth well. Cells of 2.5 × 10^5 cells/mL were added into the fourth to eleventh wells. The plates were incubated for 48 h at 37 °C with 5% CO2 until a monolayer is formed. […] After the incubation period, MTT (20 μL, 5 mg/mL) was added into each well and the cells incubated for 2 to 4 h, until a purple precipitate was clearly visible under a microscope, the medium together with MTT (190 μL) was aspirated off from the wells, DMSO (100 μL) was added and the plate shaken for 5 min. The absorbance for each well was measured at 540 nm in a micro-titer plate reader and percentage of cell viability (CV) was calculated manually using the formula: CV = [(Abssample − Absnegative control)/(Abscell − Absnegative control)] × 100.

[3] = β-carotene-linoleic acid (BCLA) assay; assay type: biochemical; conditions: bleaching of β-carotene, 450 nm, up to 120 min; mean ± SD (n = 3); read-out: BCLA method (IC50)
Procedure: This test was carried out according to the reported method of literature with modification. Approximately 4 mL of a solution of β-carotene in chloroform (1 mg/mL) were pipetted into a flask containing 40 mg of linoleic acid and 400 mg of Tween-40. The chloroform was removed using a rotary evaporator at 40 °C for 5 min, and to the residue, 100 mL of distilled water were added, slowly with vigorous agitation, to form an emulsion. A 96-well micro-titer plate was added with 50 μL of the Part 2.4.1 solution of the test compound and 200 μL of the emulsion, and the absorbance was measured at 450 nm, immediately, against a blank consisting of the emulsion without β-carotene. The plate was allowed to stand at room temperature (20–23 °C), and the absorbance measurements were conducted again at 30 min intervals up to 120 min. All tests were carried out in triplicate. Stable antioxidants of AscA and BHT were used as positive controls. The antioxidant activity (AA) of the test samples was evaluated in terms of bleaching of β-carotene using the formula; AA = [1 − (A0 − At)/(A0' − At')] × 100, where A0 and A0' are the absorbance values measured at zero time of the sample and the blank, respectively, and At and At' are the absorbance measured in the test sample and the blank, respectively, at times up to 120 min.

[4] = DPPH radical scavenging activity (RSA) assay; assay type: biochemical; conditions: for IC50: 15 min in the dark at room temperature, 515 nm, mean ± SD (n = 3), read-out: DPPH radical scavenging activities (IC50); for average fold higher DPPH scavenging activity compared to compounds 1 to 6: positive controls vs compounds 1 to 6
Procedure: The antioxidant activity of all six compounds was determined by the DPPH radical scavenging method according to the previous procedure with modification. Each compound was diluted two-fold in a series of five starting from 5.00 mg/mL. The solution of DPPH in methanol (6 × 10^−5 M) was prepared daily before UV measurements. A 3 mL aliquot of this solution was mixed with 77 μL of the compound solution in a 1-cm path length microcuvette. The mixture was shaken vigorously. The mixtures were then kept in the dark for 15 min at room temperature and the decrease in absorption was measured immediately in a UV-Vis spectrophotometer at 515 nm. The blank solution containing the same amount of methanol and DPPH solution was prepared and its absorption was measured daily. The experiment was carried out in triplicate. AscA and BHT were used as positive controls. The RSA of samples, expressed as percentage inhibition of DPPH, was calculated according to the formula: Inhibition percentage (Ip) = [(AB − AA)/AB] × 100, where AB and AA are the absorbance values—checked after 15 min—of the blank sample and of the tested sample solutions, respectively.

[5] = from Parthenocissus laetevirens, read-out: DPPH RSA antioxidant activities
[6] = from V. chunganensis, read-out: DPPH RSA
[7] = Vero cells, MTT, 24 h incubation, read-out: Cytotoxic activities on Vero cell lines (LC50)
[8] = from V. wilsonae, read-out: antioxidant activities towards DPPH, IC50

In the case of laetevirenol B, the IC50 [1, 5] is given as 37.3 µM.
For (+)-gnetin H, the IC50 [1, 6] is listed as 251 µM.
For `Oc1ccc([C@H]2Oc3cc(O)cc4c3[C@@H]2c2cc(O)cc3c2[C@@H](c2cc(O)cc5c2[C@@H]4[C@H](c2ccc(O)cc2)O5)[C@H](c2ccc(O)cc2)O3)cc1` [Compound 3, (+)-α-viniferin], the CC50 at 24 h [2, 7] was 208 µM, the IC50 [3] was 180 µM and the IC50 [4] was 6290 ± 50 µM.
For `O=C1O[C@H]([C@@H](O)CO)C(O)=C1O` [AscA, ascorbic acid, reference compound], the IC50 [3] was 25200 ± 1740 µM, the IC50 [4] was 680 µM and the “average fold higher DPPH scavenging activity compared to compounds 1 to 6” value [4] was 6 fold.
In the case of laetevirenol C, the IC50 [1, 5] is listed as 111 µM.
For `Oc1ccc([C@H]2c3c(O)cc(O)cc3[C@H]3c4c(cc(O)cc4[C@@H]2[C@H]2c4cc(O)cc5c4[C@H](c4cc(O)cc(O)c4[C@@H]2c2ccc(O)cc2)[C@@H](c2ccc(O)cc2)O5)O[C@@H]3c2ccc(O)cc2)cc1` [Compound 6, (−)-hopeaphenol], the CC50 at 24 h [2] was 161 µM, the IC50 [3] was 100 ± 10 µM and the IC50 [4] was 2780 ± 160 µM.
In the case of `C[C@H](O)/C=C/[C@@]1(O)[C@H](C)[C@H](O)[C@@H](O)CC1(C)C` [wilsonol A], the IC50 [1, 8] is given as 104 µM.
For `Oc1cc(O)cc(/C=C/c2ccc(O)c(O)c2)c1` [piceatanol], the IC50 ([1]; from Cyperus longus, read-out: DPPH RSA IC50) is given as 11 µM.
In the case of `Oc1ccc(/C=C/c2c3c(cc4c2[C@H](c2cc(O)c(Cc5c(O)cc(O)cc5[C@@H]5c6c(O)cc7c8c6[C@H]([C@@H](c6ccc(O)cc6)c6c(O)cc(O)cc6[C@@H]8[C@@H](c6ccc(O)cc6)O7)[C@H]5c5ccc(O)cc5)c(O)c2)[C@@H](c2ccc(O)cc2)O4)O[C@H](c2ccc(O)cc2)[C@H]3c2cc(O)cc(O)c2)cc1` [chunganenol], the IC50 [1, 6] is listed as 37.3 µM.
In the case of `CC(=O)/C=C/[C@@]1(O)[C@H](C)[C@H](O)[C@@H](O)CC1(C)C` [wilsonol C], the IC50 [1, 8] is listed as 182 µM.
In the case of `Oc1ccc([C@@H]2c3c(O)cc(O)cc3[C@@H]3c4c(cc(O)cc4[C@@H]2O)O[C@H]3c2ccc(O)cc2)cc1` (relative stereo) [Compound 1, acuminatol], the CC50 at 24 h [2, 7] is reported as 400 µM, the IC50 [3] is reported as 180 ± 10 µM and the IC50 [4] is reported as 10060 ± 50 µM.
In the case of `Oc1ccc([C@H]2c3c(O)cc(O)c4c3c(cc3ccc(O)cc34)[C@@H]2c2cc(O)cc(O)c2)cc1` [laetevirenol A], the IC50 [1, 5] is given as 38.4 µM.
In the case of `Cc1cc(C(C)(C)C)c(O)c(C(C)(C)C)c1` [BHT, butylated hydroxytoluene, reference compound], the IC50 [3] is reported as 90 µM, the IC50 [4] is reported as 950 ± 50 µM and the “average fold higher DPPH scavenging activity compared to compounds 1 to 6” value [4] is reported as 4 fold.
For diviniferin B, the IC50 [1, 8] is given as 175 µM.
Work on `Oc1ccc([C@@H]2c3c(O)cc(O)cc3[C@@H]3c4c(cc(O)c5c4[C@@H]2[C@H](c2ccc(O)cc2)[C@H]5c2cc(O)cc4c2[C@@H](c2cc(O)cc(O)c2)[C@H](c2ccc(O)cc2)O4)O[C@H]3c2ccc(O)cc2)cc1` [Compound 5, vaticanol B] yielded a CC50 at 24 h [2, 7] of 759 µM, an IC50 [3] of 100 ± 10 µM and an IC50 [4] of 840 ± 20 µM.
In the case of `C[C@@H]1[C@H](O)[C@@H](O)CC(C)(C)[C@@]1(O)/C=C/[C@@H](C)O` [wilsonol B], the IC50 [1, 8] is given as 195 µM.
With `O=C1O[C@@H]2[C@H](O)COC23O[C@@H](c2ccc(O)cc2)[C@H](c2cc(O)cc4c2[C@@H](c2cc(O)cc(O)c2)[C@H](c2ccc(O)cc2)O4)[C@@]13O` (stereo partly shown) [Compound 2, laevifonol] the CC50 at 24 h [2, 7] was 597 µM, the IC50 [3] was 220 ± 20 µM and the IC50 [4] was 4210 ± 230 µM.
`O=C1C=CC23C(C1)Oc1cc(O)cc4c1C2C(c1cc(O)cc2c1C4C(c1ccc(O)cc1)O2)C(c1cc(O)cc2c1C(c1cc(O)cc(O)c1)C(c1ccc(O)cc1)O2)C3c1ccc(O)cc1` (stereo not shown) [Compound 4, shoreaketone] gave a CC50 at 24 h [2, 7] of 830 µM, an IC50 [3] of 110 µM and an IC50 [4] of 1540 ± 100 µM.
For (+)-amurensin G, the IC50 [1, 6] is listed as 138 µM.
In the case of laetevirenol D, the IC50 [1, 5] is listed as 128 µM.
For laetevirenol E, the IC50 [1, 5] is listed as 158 µM.
